Data reported in patent publication US11318136B2, “Identification of granins as the pathogenic factor of alzheimer's disease and compositions and methods for inhibiting granin aggregation and treating alzheimer's disease” (priority 2018, dated 2022).
Values belong to the compound of their own block, whether it stands above or below them.

What was measured:
[1] = target: T1, chromogranin A (CGA) (Bos taurus, UniProt P05059); experiment: Metal-induced chromogranin A aggregation (turbidity); assay type: biochemical, bovine; settings: 1 μM compound, pH 7.4; for Cu2+-induced chromogranin A aggregation / Fe2+-induced chromogranin A aggregation: chromogranin A 0.005 mg/ml (0.1 μM); for Zn2+-induced chromogranin A aggregation: chromogranin A 0.005 mg/ml
T1 construct: from tissue; host or cells: secretory granules of bovine adrenal medulla
T1 sequence (P05059 19-449): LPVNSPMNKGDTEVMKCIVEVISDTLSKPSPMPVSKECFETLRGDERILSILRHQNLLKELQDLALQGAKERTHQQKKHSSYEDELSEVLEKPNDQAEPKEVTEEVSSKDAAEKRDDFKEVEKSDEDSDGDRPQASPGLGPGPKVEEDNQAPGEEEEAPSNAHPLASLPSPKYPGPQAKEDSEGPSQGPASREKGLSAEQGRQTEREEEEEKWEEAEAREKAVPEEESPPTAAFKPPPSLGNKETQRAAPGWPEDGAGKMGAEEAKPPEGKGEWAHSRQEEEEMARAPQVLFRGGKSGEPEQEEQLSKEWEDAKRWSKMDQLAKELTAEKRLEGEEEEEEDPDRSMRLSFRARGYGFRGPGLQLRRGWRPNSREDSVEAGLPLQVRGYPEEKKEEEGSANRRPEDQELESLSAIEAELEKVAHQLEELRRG
From the text: (§1) Materials: The major granin proteins, chromogranin A (CGA), chromogranin B (CGB), and secretogranin II (SgII) were purified from secretory granules of bovine adrenal medulla as described (Park et al., 2002; Yoo, 1995; Yoo and Albanesi, 1990). Chelex 100 was from Bio-Rad (U.S.A), and other chemicals were of highest purity that is commercially available. Purified native chromogranin B (c), secretogranin II (d), and chromogranin A (b) are illustrated in FIG. 4. The flavonoids, stilbenoids, and the other test compounds used in the present experiments were obtained from MedChem Express (U.S.A.), Sigma-Aldrich (U.S.A.), and Santa-Cruz Biotech. (U.S.A.), and the purity of all the compounds tested was 98% or higher.
(§2) Aggregation Experiments: Prior to aggregation studies, it is necessary to remove metal ions that had interacted with granins during purification process from granins through extensive treatments with chelating agents such as Chelex 100 (Bio-Rad, U.S.A) to dissociate the granin aggregates. For metal-induced aggregation studies, Chelex 100-treated CGA, CGB, or SgII in 2 mM MOPS, pH 7.4, was titrated with concentrated metal ions such as CuCl2, FeCl2, and ZnCl2. Aggregation was monitored by measuring the turbidity change with a Beckman DU640 uv/vis spectrophotometer. All the measurements were done at 24° C.
(§3) Materials: The major granin proteins, chromogranin A (CGA), chromogranin B (CGB), and secretogranin II (SgII) were purified from secretory granules of bovine adrenal medulla as described (Park et al., 2002; Yoo, 1995; Yoo and Albanesi, 1990). Chelex 100 was from Bio-Rad, and other chemicals were of highest purity that is commercially available.
as §2, with “100” for “100 (Bio-Rad, U.S.A)”, “Beckman” for “Beckman DU640 uv/vis”

[2] = target: T2, chromogranin B (CGB) (Bos taurus, UniProt P23389); experiment: Metal-induced chromogranin B aggregation (turbidity); assay type: biochemical, bovine; settings: 1 μM compound, pH 7.4; for Cu2+-induced chromogranin B aggregation / Fe2+-induced chromogranin B aggregation: chromogranin B 0.005 mg/ml (0.06 μM)
T2 construct: from tissue; host or cells: secretory granules of bovine adrenal medulla
T2 sequence (P23389 21-646): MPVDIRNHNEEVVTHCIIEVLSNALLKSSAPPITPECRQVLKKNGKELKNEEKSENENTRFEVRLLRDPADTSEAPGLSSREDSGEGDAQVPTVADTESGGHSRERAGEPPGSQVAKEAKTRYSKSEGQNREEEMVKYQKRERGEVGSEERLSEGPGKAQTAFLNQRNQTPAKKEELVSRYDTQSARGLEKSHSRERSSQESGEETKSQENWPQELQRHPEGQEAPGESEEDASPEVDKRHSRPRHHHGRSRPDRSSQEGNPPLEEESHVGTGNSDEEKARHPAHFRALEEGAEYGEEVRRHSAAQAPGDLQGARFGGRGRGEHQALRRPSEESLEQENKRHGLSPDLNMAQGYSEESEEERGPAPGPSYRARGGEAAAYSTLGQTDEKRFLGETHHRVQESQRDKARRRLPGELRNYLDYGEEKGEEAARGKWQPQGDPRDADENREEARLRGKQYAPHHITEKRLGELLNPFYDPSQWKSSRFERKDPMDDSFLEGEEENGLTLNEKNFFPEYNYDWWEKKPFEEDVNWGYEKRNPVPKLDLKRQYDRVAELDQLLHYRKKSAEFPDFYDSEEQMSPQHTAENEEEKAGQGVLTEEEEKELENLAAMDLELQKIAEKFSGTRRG
From the text: as §1, §2, §3
as §2, with “100” for “100 (Bio-Rad, U.S.A)”, “Beckman” for “Beckman DU640 uv/vis”

[3] = target: T3, secretogranin II (SgII) (Bos taurus, UniProt P20616); experiment: Metal-induced secretogranin II aggregation (turbidity); assay type: biochemical, bovine; settings: 1 μM compound, pH 7.4
T3 construct: from tissue; host or cells: secretory granules of bovine adrenal medulla
T3 sequence (P20616 31-613): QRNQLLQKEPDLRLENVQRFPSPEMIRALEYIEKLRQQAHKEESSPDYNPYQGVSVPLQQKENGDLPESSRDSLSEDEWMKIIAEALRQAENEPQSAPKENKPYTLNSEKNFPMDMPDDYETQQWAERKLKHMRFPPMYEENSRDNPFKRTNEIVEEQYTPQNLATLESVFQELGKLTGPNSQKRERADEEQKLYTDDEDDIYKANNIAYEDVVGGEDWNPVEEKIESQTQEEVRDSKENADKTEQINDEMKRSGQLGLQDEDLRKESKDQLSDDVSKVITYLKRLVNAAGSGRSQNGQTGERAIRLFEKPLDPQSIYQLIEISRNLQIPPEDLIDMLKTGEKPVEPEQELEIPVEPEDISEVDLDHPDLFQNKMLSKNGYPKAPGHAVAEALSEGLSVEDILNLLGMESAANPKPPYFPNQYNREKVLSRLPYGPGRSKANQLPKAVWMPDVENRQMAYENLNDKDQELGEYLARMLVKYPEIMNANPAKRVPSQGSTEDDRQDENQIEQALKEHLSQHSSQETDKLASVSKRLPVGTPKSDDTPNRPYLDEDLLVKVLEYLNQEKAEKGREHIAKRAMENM
From the text: as §1, §2, §3
as §2, with “100” for “100 (Bio-Rad, U.S.A)”, “Beckman” for “Beckman DU640 uv/vis”

[4] = target: T4, chromogranin B (Bos taurus, UniProt P23389); experiment: Dynamic light scattering, hydrodynamic state of chromogranin B; assay type: biochemical, bovine; settings: chromogranin B 0.5 mg/ml (6 μM); 0.2 mM compound; 0.2 mM Fe2+; pH 7.4
T4 construct: from tissue; host or cells: secretory granules of bovine adrenal medulla
T4 sequence (P23389 21-646): T2 sequence (P23389 21-646)
Description: Molecular dynamic light scattering: To determine whether granins are in a monomer-to-oligomer state or in high molecular weight aggregate states in different solution conditions, dynamic light scattering experiments of granins were carried out with a DynaPro NanoStar of Wyatt Technology (Santa Barbara, Calif.) at 24° C., and the results were analyzed by a program (Dynamics 7.5.0) provided by the company.

[5] = test system: PC12 cells; experiment: MTT cell toxicity assay, granin plus Cu2+ toxicity; assay type: cell-based; settings: 0.1 μM chromogranin A, 0.06 μM chromogranin B, 0.07 μM secretogranin II, 20 μM Cu2+, 1 μM compound
From the text: MTT cell toxicity assay: Cell toxicity assays were done using MTT cell proliferation assay kits from Invitrogen (U.S.A.) and 50,000 PC12 cells/well as described (Cheruvara et al., 2015; Shearman et al., 1994). The assays are designed to detect the level of MTT dye reduction by cells, and the resulting color changes at 570 nm are used as an indicator of cell viability (health). The healthier the cells the higher the color changes.

[6] = secretogranin II 0.005 mg/ml (0.07 μM)

Fe2+-induced chromogranin A aggregation [1]: significantly suppressed | Fe2+-induced secretogranin II aggregation [3, 6]: significantly suppressed
Compound: COc1cc2ncnc(Nc3cccc(Cl)c3)c2cc1OC [tyrphostin AG1478]

Cu2+-induced chromogranin A aggregation [1]: mostly suppressed | Fe2+-induced chromogranin B aggregation [2]: completely suppressed
Compound: COc1ccc(-c2cc(=O)c3c(OC)c(OC)c(OC)c(OC)c3o2)cc1 [tangeretin]

Fe2+-induced chromogranin A aggregation [1]: completely suppressed | Fe2+-induced chromogranin B aggregation [2]: completely suppressed
Compound: O=c1c(O)c(-c2cc(O)c(O)c(O)c2)oc2cc(O)cc(O)c12 [myricetin]

Fe2+-induced chromogranin A aggregation [1]: completely suppressed | Cu2+-induced secretogranin II aggregation [3, 6]: mostly suppressed
Compound: O=c1c(O)c(-c2ccc(O)cc2)oc2cc(O)cc(O)c12 [kaempferol]

Fe2+-induced chromogranin A aggregation [1]: completely suppressed | Zn2+-induced chromogranin A aggregation [1]: mostly suppressed
Compound: O=c1c(O)c(-c2ccc(O)cc2O)oc2cc(O)cc(O)c12 [morin]

Fe2+-induced chromogranin B aggregation [2]: mostly inhibited | Fe2+-induced secretogranin II aggregation [3, 6]: mostly inhibited
Compound: O=c1cc(-c2ccc(O)c(O)c2)oc2cc(O)cc(O)c12 [luteolin]
granin-induced toxicity (cell toxicity, MTT) [5]: virtually stopped

Fe2+-induced chromogranin B aggregation [2]: mostly suppressed | Zn2+-induced secretogranin II aggregation [3, 6]: significantly suppressed
Compound: Oc1ccc(C=Cc2cc(O)cc(O)c2)cc1 [resveratrol]

Second part, the compound before the results:

Compound: O=c1cc(-c2ccc(O)cc2)oc2cc(O)cc(O)c12 [apigenin]
Cu2+-induced chromogranin A aggregation [1]: completely suppressed | Zn2+-induced chromogranin B aggregation ([2]; chromogranin B 0.005 mg/ml): mostly suppressed

Compound: O=c1c(O)c(-c2ccc(O)c(O)c2)oc2cc(O)cc(O)c12 [quercetin]
Cu2+-induced chromogranin B aggregation [2]: completely suppressed | Fe2+-induced secretogranin II aggregation [3, 6]: completely suppressed

Compound: Nc1ncnc2c1ncn2[C@@H]1O[C@H](CO)C[C@H]1O [cordycepin]
Cu2+-induced chromogranin A aggregation [1]: mostly suppressed | Fe2+-induced secretogranin II aggregation [3, 6]: significantly suppressed

Compound: epigallocatechin 3-gallate [EGCG]
Cu2+-induced secretogranin II aggregation [3, 6]: mostly suppressed | Fe2+-induced secretogranin II aggregation [3, 6]: completely suppressed

Compound: COc1cc(OC)c2c(=O)cc(-c3ccccc3)oc2c1 [5,7-dimethoxyflavone]
Fe2+-induced chromogranin A aggregation [1]: completely suppressed | Zn2+-induced chromogranin A aggregation [1]: mostly suppressed

Compound: O=c1cc(-c2ccccc2)oc2cc(O)c(O)c(O)c12 [baicalein]
chromogranin B in large aggregate state [4]: 5.3% | chromogranin B remaining in low molecular weight oligomer state [4]: 94.7% | Cu2+-induced chromogranin B aggregation [2]: mostly suppressed | Fe2+-induced secretogranin II aggregation ([3]; secretogranin II 0.01 mg/ml (0.14 μM)): completely suppressed

Compound: O=c1c(O)c(-c2ccc(O)c(O)c2)oc2cc(O)ccc12 [fisetin]
Fe2+-induced chromogranin A aggregation [1]: completely suppressed | Fe2+-induced secretogranin II aggregation [3, 6]: completely suppressed
